From patent publication US20260347355A1, “COMPOUNDS” (Hoffmann-La Roche Inc., priority 2023, published 2026)

Assays:
NLRP3 [1] = target: T1, NLRP3 (Homo sapiens, UniProt Q96P20); parameters: THP-1 cells (ATCC #TIB-202) were grown in RPMI; endogenous in cells; host or cells: THP-1 cells (ATCC TIB-202); conditions: cited from earlier work
CAPS = conditions: biologic agents that target IL-1; cited from earlier work
NLRP3 [2] = target: T1, NLRP3; assay: THP-1 cells pyroptosis assay (LPS primed, nigericin stimulated, resazurin readout); format: cell-based; parameters: endogenous in cells; host or cells: THP-1 cells (ATCC TIB-202); conditions: THP-1 pyroptosis Assay IC50, THP-1 cells, 1 μg/ml LPS, 5 μM nigericin, 3 h compound pre-incubation
Method: Therefore, it is anticipated that inhibitors of NLRP3 will block pyroptosis, as well as the release of pro-inflammatory cytokines (e.g. IL-1β) from the cell.
THP-1 Cells: Culture and Preparation
The cells were routinely passaged and grown to confluency (~10^6cells/ml). On the day of the experiment, THP-1 cells were harvested and resuspended into RPMI medium (without FBS). […] To this diluted cell solution was added LPS (Sigma #L4524) to give a 1 μg/ml Final Assay Concentration (FAC). 40 μl of the final preparation was aliquoted into each well of a 96-well plate. The plate thus prepared was used for compound screening.
THP-1 Cells Pyroptosis Assay
The following method step-by-step assay was followed for compound screening.
(§1) Incubate for 3 hours at 37 °C, 5% CO2
Add 5 μl nigericin (Sigma #N7143) (FAC 5 μM) to all wells
(§2) Incubate for 1 hr at 37 °C, 5% CO2
At the end of the incubation period, spin plates at 300×g for 3 mins and remove supernatant
Then add 50 μl of resazurin (Sigma #R7017) (FAC 100 μM resazurin in RPMI medium without FBS) and incubate plates for a further 1-2 hours at 37 °C and 5% CO2
(§3) IC50 data is fitted to a non-linear regression equation (log inhibitor vs response-variable slope 4-parameters)

NLRP3 [3] = target: T1, NLRP3; assay: Human whole blood IL-1β release assay (LPS, nigericin; AlphaLISA); format: cell-based; parameters: Human whole blood in Li-heparin tubes was obtained from healthy donors from a volunteer donor panel; from tissue; host or cells: human whole blood from healthy volunteer donors; conditions: 1 μg/ml LPS, 10 μM nigericin, 3 h compound pre-incubation
Method: Human Whole Blood IL-1β Release Assay
For systemic delivery, the ability to inhibit NLRP3 when the compounds are present within the bloodstream is of great importance. For this reason, the NLRP3 inhibitory activity of a number of compounds in human whole blood was investigated in accordance with the following protocol.
Human whole blood in Li-heparin tubes was obtained from healthy donors from a volunteer donor panel.
as §1
Add 10 μl nigericin (Sigma #N7143) (10 μM FAC) to all wells
as §2
At the end of the incubation period, spin plates at 300×g for 5 mins to pellet cells and remove 20 μl of supernatant and add to 96-well v-bottom plates for IL-1β analysis (note: these plates containing the supernatants can be stored at −80 °C to be analysed at a later date)
IL-1β was measured according to the manufacturer protocol (Perkin Elmer-AlphaLisa IL-1 Kit AL220F-5000)
as §3

NLRC4 = conditions: cited from earlier work
NLRP1 = conditions: cited from earlier work
[4] = target: T2, human ether-i-go-go-related gene (hERG) cardiac potassium channel (Homo sapiens, UniProt Q12809); assay: hERG screening assay (automated patch clamp, CHO crelox hERG cells); format: cell-based; conditions: SynchroPatch 384, 35-37 °C, 0.1 Hz, read-out: hERG inhibition IC20
T2 construct: whole-cell automated patch clamp, SynchroPatch 384, 35-37 °C
T2 sequence (Q12809 whole entry): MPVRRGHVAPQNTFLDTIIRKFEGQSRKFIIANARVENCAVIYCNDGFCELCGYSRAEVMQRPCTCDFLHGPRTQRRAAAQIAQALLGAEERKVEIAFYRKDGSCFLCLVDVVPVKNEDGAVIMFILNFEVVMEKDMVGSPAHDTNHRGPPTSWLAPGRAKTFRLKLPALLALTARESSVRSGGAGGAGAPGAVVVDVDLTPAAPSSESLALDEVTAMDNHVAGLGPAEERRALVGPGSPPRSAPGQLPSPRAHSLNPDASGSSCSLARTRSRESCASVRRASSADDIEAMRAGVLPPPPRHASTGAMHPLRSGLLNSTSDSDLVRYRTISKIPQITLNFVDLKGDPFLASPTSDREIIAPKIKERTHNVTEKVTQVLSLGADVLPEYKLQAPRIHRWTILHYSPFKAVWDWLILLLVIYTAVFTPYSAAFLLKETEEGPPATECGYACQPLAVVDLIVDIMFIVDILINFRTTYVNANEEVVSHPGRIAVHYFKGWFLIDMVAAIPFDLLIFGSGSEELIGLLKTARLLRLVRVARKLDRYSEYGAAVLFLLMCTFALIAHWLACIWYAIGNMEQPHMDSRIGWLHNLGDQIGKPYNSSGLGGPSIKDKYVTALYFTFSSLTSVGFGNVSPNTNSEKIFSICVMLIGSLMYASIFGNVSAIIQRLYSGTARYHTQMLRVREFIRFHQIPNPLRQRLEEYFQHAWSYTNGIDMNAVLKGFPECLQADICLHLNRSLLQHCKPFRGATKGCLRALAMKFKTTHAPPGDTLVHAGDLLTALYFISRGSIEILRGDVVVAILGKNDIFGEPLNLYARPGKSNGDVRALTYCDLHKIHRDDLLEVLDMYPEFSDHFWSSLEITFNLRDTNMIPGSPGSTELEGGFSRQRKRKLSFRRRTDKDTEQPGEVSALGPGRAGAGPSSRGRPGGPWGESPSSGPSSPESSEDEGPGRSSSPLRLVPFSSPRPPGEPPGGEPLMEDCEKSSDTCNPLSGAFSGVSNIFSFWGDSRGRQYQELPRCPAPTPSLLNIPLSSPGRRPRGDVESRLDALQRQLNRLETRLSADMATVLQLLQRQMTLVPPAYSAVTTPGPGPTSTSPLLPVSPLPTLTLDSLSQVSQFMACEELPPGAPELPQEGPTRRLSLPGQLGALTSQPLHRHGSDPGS
Description: In the drug development process of small molecules, one of the most frequent adverse side effects, leading to the failure of drugs, is the cardiac arrhythmias. Such failure is often related to the capacity of the drug to inhibit the human ether-i-go-go-related gene (hERG) cardiac potassium channel. Having no or low inhibition of the hERG cardiac potassium channel is therefore considered as beneficial.
The CHO crelox hERG cell line (ATCC reference Nr. PTA-6812, female Chinese hamster cells) was generated and validated at Roche. Ready-to-use frozen instant CHO-hERG cells were cryopreserved at Evotec (Germany) and used directly in the experiments.
The extracellular solution contains (in mM): NaCl 150; KCl 4; CaCl2 1; MgCl2 1; HEPES 10; pH 7.2-7.4 with NaOH, osmolarity 290-330 mOsm. […]
The effects of a compound on hERG K+-currents parameters will be evaluated at 2 concentrations in at least 4 cells.
The hERG test is performed using automated patch clamp system SynchroPatch® 384 (Nanion Technologies GmbH, Germany). K+ currents are measured with the patch-voltage-clamp technique in the whole-cell configuration at 35-37 °C. […]
The amplitudes of IKhERG were recorded in each concentration of drug and they were compared to the vehicle control values (taken as 100%) to define fractional blocks. […]

T1 sequence (Q96P20 whole entry): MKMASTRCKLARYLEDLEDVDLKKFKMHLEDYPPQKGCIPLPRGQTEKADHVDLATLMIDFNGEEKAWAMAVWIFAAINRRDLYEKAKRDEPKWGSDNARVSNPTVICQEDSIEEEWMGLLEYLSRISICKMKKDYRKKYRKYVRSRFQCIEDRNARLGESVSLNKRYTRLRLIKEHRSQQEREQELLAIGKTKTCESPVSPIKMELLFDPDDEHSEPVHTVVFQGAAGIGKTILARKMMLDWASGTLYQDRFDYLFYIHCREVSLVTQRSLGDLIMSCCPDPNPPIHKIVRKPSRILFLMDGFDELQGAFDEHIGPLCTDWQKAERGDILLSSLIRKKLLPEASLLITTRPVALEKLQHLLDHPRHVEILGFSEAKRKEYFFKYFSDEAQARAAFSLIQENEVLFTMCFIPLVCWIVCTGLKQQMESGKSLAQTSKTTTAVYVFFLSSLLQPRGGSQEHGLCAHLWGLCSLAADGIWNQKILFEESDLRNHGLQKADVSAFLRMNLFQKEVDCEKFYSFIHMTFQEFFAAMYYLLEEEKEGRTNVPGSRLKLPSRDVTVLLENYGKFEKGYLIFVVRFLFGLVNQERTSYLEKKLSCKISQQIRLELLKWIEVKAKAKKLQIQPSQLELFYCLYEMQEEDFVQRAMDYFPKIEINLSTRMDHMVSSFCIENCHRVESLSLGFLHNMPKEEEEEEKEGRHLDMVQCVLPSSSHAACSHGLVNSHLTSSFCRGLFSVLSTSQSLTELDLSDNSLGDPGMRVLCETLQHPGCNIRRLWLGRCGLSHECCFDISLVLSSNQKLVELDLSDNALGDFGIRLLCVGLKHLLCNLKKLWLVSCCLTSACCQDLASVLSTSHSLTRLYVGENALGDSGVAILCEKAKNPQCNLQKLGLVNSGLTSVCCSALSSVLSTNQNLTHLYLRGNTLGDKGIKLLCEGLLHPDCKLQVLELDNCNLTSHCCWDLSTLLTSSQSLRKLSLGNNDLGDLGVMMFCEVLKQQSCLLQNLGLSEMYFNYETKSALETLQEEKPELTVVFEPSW

Compound	IC50 (NLRP3 [2]) [nM]	IC50 (NLRP3 [3]) [nM]	other results
O=[N+]([O-])C=Cc1ccc2c(c1)OCO2 [3,4-methylenedioxy-β-nitrostyrene]	–	–	NLRP3 inhibition, potency (NLRP3 [1]): limited potency; NLRP3 inhibition, specificity (NLRP3 [1]): nonspecific
canakinumab: neutralizing IL-1β antibody	–	–	success in the treatment of CAPS (CAPS): proven successful in the treatment of CAPS
Oc1c(-c2nnc(NCC3CCOC3)c3cnccc23)ccc2c1CCO2 (single isomer, unassigned) [Example 5B]	64	36	–
C[S+](C)[O-] [dimethyl sulfoxide (DMSO), dimethyl sulfoxide]	–	–	NLRP3 inhibition, potency (NLRP3 [1]): limited potency; NLRP3 inhibition, specificity (NLRP3 [1]): nonspecific
Oc1c(-c2nnc(NCC3CCCO3)c3cnccc23)ccc2c1CCO2 (single isomer, unassigned) [Example 6B]	63	59	–
C=C1C(=O)O[C@@H]2[C@H]3O[C@]3(C)CC/C=C(\C)CC[C@@H]12 [parthenolide]	–	–	NLRP3 inhibition, potency (NLRP3 [1]): limited potency; NLRP3 inhibition, specificity (NLRP3 [1]): nonspecific
Oc1c(-c2nnc(NCC3CCCO3)c3cnccc23)ccc2c1CCO2 (single isomer, unassigned) [Example 6A]	58	47	–
rilonacept	–	–	success in the treatment of CAPS (CAPS): proven successful in the treatment of CAPS
COc1ccc(Cl)cc1C(=O)NCCc1ccc(S(=O)(=O)NC(=O)NC2CCCCC2)cc1 [Glyburide]	–	–	inhibition of IL-1β production in response to the activation of NLRC4 (NLRC4): not NLRC4; inhibition of IL-1β production in response to the activation of NLRP1 (NLRP1): not NLRC4 or NLRP1
Oc1c(-c2nnc(N[C@H]3CCCC[C@@H]3O)c3cnccc23)ccc2c1CCO2 (relative stereo) [Example 2B, 5-[4-[[rel-(1S,2S)-2-Hydroxycyclohexyl]amino]pyrido[3,4-d]pyridazin-1-yl]-2,3-dihydrobenzofuran-4-ol]	–	–	IC20 [4]: > 10000 nM
COCc1cc2c(c(O)c1-c1nnc(N[C@@H]3CCCC[C@H]3O)c3cnccc13)CCO2 [Example 8, 5-[4-[[(1R,2R)-2-Hydroxycyclohexyl]amino]pyrido[3,4-d]pyridazin-1-yl]-6-(methoxymethyl)-2,3-dihydrobenzofuran-4-ol]	21	–	–
Oc1c(-c2nnc(N[C@H]3CC[C@@H](O)CC3)c3cnccc23)ccc2c1CCO2 [Example 11, cis-5-[4-[(4-Hydroxycyclohexyl)amino]pyrido[3,4-d]pyridazin-1-yl]-2,3-dihydrobenzofuran-4-ol]	57	51	–
Fc1c[nH]c2cc(-c3nnc(NCC4CCOC4)c4cnccc34)ccc12 (single isomer, unassigned) [Example 4B]	211	–	–
Oc1c(-c2nnc(N[C@@H]3CCOC[C@@H]3O)c3cnccc23)ccc2c1CCO2 [Example 15, 5-[4-[[(3R,4R)-3-Hydroxytetrahydropyran-4-yl]amino]pyrido[3,4-d]pyridazin-1-yl]-2,3-dihydrobenzofuran-4-ol]	–	–	IC20 [4]: > 10000 nM
O[C@@H]1CCCC[C@H]1Nc1nnc(-c2ccc3cc[nH]c3c2)c2ccncc12 (racemic) [Example 3, rac-(1R,2R)-2-[[1-(1H-Indol-6-yl)pyrido[3,4-d]pyridazin-4-yl]amino]cyclohexanol]	99	108	–
Oc1c(-c2nnc(N[C@H]3CC[C@H](O)CC3)c3cnccc23)ccc2c1CCO2 [Example 9, trans-5-[4-[(4-Hydroxycyclohexyl)amino]pyrido[3,4-d]pyridazin-1-yl]-2,3-dihydrobenzofuran-4-ol]	56	43	–
Oc1c(-c2nnc(NCC3CCOC3)c3cnccc23)ccc2c1CCO2 (single isomer, unassigned) [Example 5A]	29	32	–
Fc1c[nH]c2cc(-c3nnc(NCC4CCOC4)c4cnccc34)ccc12 (single isomer, unassigned) [Example 4A]	134	–	–
Oc1c(-c2nnc(NCC3CCOC3)c3cnccc23)ccc2c1CCO2 (racemic) [Example 5, 5-[4-[[rac-(3S)-Tetrahydrofuran-3-yl]methylamino]pyrido[3,4-d]pyridazin-1-yl]-2,3-dihydrobenzofuran-4-ol]	38	37	–
anakinra: recombinant IL-I receptor antagonist	–	–	success in the treatment of CAPS (CAPS): proven successful in the treatment of CAPS
